According to patent US12496346B2, “Phospholipid-flavagline conjugates and methods of using the same for targeted cancer therapy” (Cellectar Biosciences, Inc., priority 2019, dated 2025):

Columns and labels:
[1] = In vitro cytotoxicity of CLR 1899; format: cell-based; conditions: human, NHDF (normal dermal fibroblasts); read-out: Minimum % viability
Description: CLR 1899 was administered to cell lines A375 (human malignant melanoma), A549 (human lung adenocarcinoma), HCT 116 (human colon cancer), and NHDF (normal human dermal fibroblasts).

[2] = In vivo tolerability, body weight changes; design: species or system C57BL/6 mice; conditions: intravenous, repeat dosing, 0.5, 1.0 or 2.0 mg/kg
Description: To determine whether CLR 1899 is tolerated in vivo, the compound was administered intravenously to healthy C57BL/6 mice at dose levels of 0.5 mg/kg, 1.0 mg/kg, or 2.0 mg/kg, and body weight changes were observed (FIG. 12). […] The in vivo efficacy of CLR 1899 was studied in MCF-7 xenograft model (FIG. 13, 10 mice per dose group). Reduction in tumor volume was recorded.

COC(=O)[C@H]1[C@@H](O)[C@@]2(O)c3c(OC)cc(OCCCCNC(=O)CNC(=O)CNC(=O)CNC(=O)c4ccc(CCCCCCCCCCCCCCCCCCOP(=O)([O-])OCC[N+](C)(C)C)cc4)cc3O[C@@]2(c2ccc(OC)cc2)[C@@H]1c1ccccc1 [CLR 1899]
viability [1]: 41.7%
toxicity or adverse events as measured by changes in weight [2]: no toxicity or adverse events
